# Assays:
# [1] = Solubility testing (visual inspection, centrifugation, microscopy)
# Method: It details the cell cultivation and seeding procedure, the preparation of the reference, control and test chemicals, the procedure for agonist testing and antagonist testing, prescreen runs, and comprehensive runs, as well as data analysis and data interpretation. This SOP also includes references to the SOPs for solubility testing and cytotoxicity testing. […] Solubility was tested both in the solvent and in media under similar circumstances as would be required during the (ant)agonist testing. The initial concentration to be tested was prescribed at 50 mg/ml. Starting from the highest soluble concentration, cytotoxicity was determined with an LDH assay. Visual checking of cytotoxicity in all wells of the plate was however also required for each run.
# This included an investigation by heating, centrifugation, microscopy, and visual checking. […] For the purpose of the validation study, the labs were requested to start from 50 mg/ml as the maximal stock concentration to be tested.
# [2] = target: T1, human androgen receptor (hAR) (Homo sapiens, UniProt P10275); assay: cell-based; format: cell-based
# T1 construct: host or cells: U2-OS human osteosarcoma cells (ATCC HTB 96), stably transfected (AR-CALUX cell line)
# T1 sequence (P10275 1-920): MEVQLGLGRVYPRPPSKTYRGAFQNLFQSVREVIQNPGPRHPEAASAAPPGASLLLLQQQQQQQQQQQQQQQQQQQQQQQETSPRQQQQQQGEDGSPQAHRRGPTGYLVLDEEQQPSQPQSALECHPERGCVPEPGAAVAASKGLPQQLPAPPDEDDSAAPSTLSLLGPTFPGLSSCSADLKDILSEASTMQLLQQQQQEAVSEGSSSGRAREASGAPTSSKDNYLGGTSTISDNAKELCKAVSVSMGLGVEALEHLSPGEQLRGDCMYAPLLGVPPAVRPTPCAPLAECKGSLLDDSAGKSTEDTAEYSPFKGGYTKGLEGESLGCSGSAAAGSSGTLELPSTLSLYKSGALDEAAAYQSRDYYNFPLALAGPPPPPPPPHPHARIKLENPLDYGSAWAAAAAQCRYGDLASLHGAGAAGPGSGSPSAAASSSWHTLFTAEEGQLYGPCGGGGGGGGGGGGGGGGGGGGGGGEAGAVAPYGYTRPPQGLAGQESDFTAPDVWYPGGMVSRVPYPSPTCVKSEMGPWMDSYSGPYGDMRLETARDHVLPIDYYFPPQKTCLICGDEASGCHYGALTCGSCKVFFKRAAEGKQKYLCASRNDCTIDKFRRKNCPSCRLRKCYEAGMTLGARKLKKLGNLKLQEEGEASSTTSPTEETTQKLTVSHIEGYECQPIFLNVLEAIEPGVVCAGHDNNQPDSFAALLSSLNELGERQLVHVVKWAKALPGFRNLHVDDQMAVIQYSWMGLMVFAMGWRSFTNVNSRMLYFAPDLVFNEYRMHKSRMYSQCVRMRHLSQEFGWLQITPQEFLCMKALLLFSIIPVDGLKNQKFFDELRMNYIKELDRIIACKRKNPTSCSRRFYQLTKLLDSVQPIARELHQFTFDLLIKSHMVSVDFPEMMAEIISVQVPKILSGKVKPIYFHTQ
# Description: (§1) The AR-CALUX® cell line was created by BioDetection Systems (BDS). It can be purchased from BDS with a license (https://www.biodetectionsystems.com). The human osteosarcoma cell line U2-OS (ATCC HTB 96) was transfected with 2 constructs: pSG5-neo-hAR carrying the cDNA of a human androgen receptor (hAR) under a constitutive promoter, and, a luciferase reporter gene which is preceded by a triple tandem of AREs in front of a TATA box (3x ARE Luc). […] The AR-CALUX® cell line was obtained from the test method developer BDS. EURL ECVAM prepared a master cell bank and a large working cell bank which were tested for the absence of mycoplasma, bacteria, fungi, and yeast and for the absence of Hepatitis B and C and HIV. In addition, to verifying the authenticity of the cell line, Short Tandem Repeat (STR) profiling was carried out to confirm the test system to be U2-OS cells. […] The laboratories were requested, at the end of each part of the study (Parts 1, 2, and 3), to perform a mycoplasma test of their choice. Additional aliquots were sent to EURL ECVAM for a reanalysis of authenticity.
# (§2) Subsequently, the test chemical was assessed with a prescreen run (dilution steps of 10) and simultaneously with the quantitative cytotoxicity test to determine (1) cytotoxic concentrations, (2) the response, and (3) the appropriate dose range to be tested. […] The cytotoxicity test was performed once more. Test chemicals were diluted in media and consisted of 8 serial dilutions. Each dilution was tested in triplicate.
# (§3) Each experiment (run) was comprised of a maximum of 6 plates. The first plate would contain 8 serial dilutions of the reference chemical DHT (for agonism) or Flutamide (for antagonism), while the positive and negative controls were added at fixed concentrations. In addition, a solvent control was added (medium without the chemical but with DMSO 0.1%).
# A. Positive when the relative induction (Yc) of the test item is ≥ 10% (REF RPC10) for two or more consecutive concentrations.
# [3] = target: T1, human androgen receptor (hAR); assay: AR-CALUX antagonist assay (medium spiked with DHT at EC50); format: cell-based
# Description: as §1, §2, §3
# For the antagonist assay, the medium was supplemented with DHT at EC50 concentration (standard assay). […] Each antagonist assay was accompanied by a specificity control test carried out on the same plate.
# A. Positive (competitive antagonist) when the relative induction (Yc) of the test item is ≤ 80% (REF RPC80) for two or more consecutive concentrations and […]
# [4] = DMSO, Lab 1, highest tested 50 mg/ml
# [5] = DMSO, Lab 2, highest tested 50 mg/ml
# [6] = DMSO, Lab 3, highest tested 50 mg/ml
# [7] = DMSO, Lab 4, highest tested 50 mg/ml
# [8] = aqueous buffer, kinetic from dmso stock, Solubility in medium, Lab 1, assay medium, Lab 1
# [9] = aqueous buffer, kinetic from dmso stock, Solubility in medium, Lab 2, assay medium, Lab 2
# [10] = aqueous buffer, kinetic from dmso stock, Solubility in medium, Lab 3, assay medium, Lab 3
# [11] = aqueous buffer, kinetic from dmso stock, Solubility in medium, Lab 4, assay medium, Lab 4
# [12] = organic solvent or mixture, thermodynamic from solid, Solubility in DMSO, Lab 1, DMSO, Lab 1, highest tested 50 mg/ml
# [13] = organic solvent or mixture, thermodynamic from solid, Solubility in DMSO, Lab 2, DMSO, Lab 2, highest tested 50 mg/ml
# [14] = organic solvent or mixture, thermodynamic from solid, Solubility in DMSO, Lab 3, DMSO, Lab 3, highest tested 50 mg/ml
# [15] = organic solvent or mixture, thermodynamic from solid, Solubility in DMSO, Lab 4, DMSO, Lab 4, highest tested 50 mg/ml
Structure (SMILES),"Solubility in DMSO, Lab 1 [1, 4]","Solubility in DMSO, Lab 2 [1, 5]","Solubility in DMSO, Lab 3 [1, 6]","Solubility in DMSO, Lab 4 [1, 7]","Solubility in medium, Lab 1 ([1]; assay medium, Lab 1)","Solubility in medium, Lab 2 ([1]; assay medium, Lab 2)","Solubility in medium, Lab 3 ([1]; assay medium, Lab 3)","Solubility in medium, Lab 4 ([1]; assay medium, Lab 4)","solubility [1, 8]","solubility [1, 9]","solubility [1, 10]","solubility [1, 11]","solubility [1, 12]","solubility [1, 13]","solubility [1, 14]","solubility [1, 15]",further results
CC(=O)O[C@]1(C(C)=O)CC[C@H]2[C@@H]3C[C@H](C)C4=CC(=O)CC[C@]4(C)[C@H]3CC[C@@]21C [Medroxyprogesterone acetate],–,–,–,–,–,–,–,–,–,–,–,–,–,–,–,–,"solubility ([1]; DMSO, organic solvent or mixture, thermodynamic from solid, Solubility in DMSO, Lab 1, DMSO, Lab 1, highest tested 50 mg/ml): 1500 µg/mL; solubility ([1]; DMSO, organic solvent or mixture, thermodynamic from solid, Solubility in DMSO, Lab 2, DMSO, Lab 2, highest tested 50 mg/ml): 15000 µg/mL; solubility ([1]; DMSO, organic solvent or mixture, thermodynamic from solid, Solubility in DMSO, Lab 3, DMSO, Lab 3, highest tested 50 mg/ml): 15000 µg/mL; solubility ([1]; DMSO, organic solvent or mixture, thermodynamic from solid, Solubility in DMSO, Lab 4, DMSO, Lab 4, highest tested 50 mg/ml): 5000 µg/mL; solubility ([1]; assay medium, aqueous buffer, kinetic from dmso stock, Solubility in medium, Lab 1, assay medium, Lab 1): 1.5 µg/mL; solubility ([1]; assay medium, aqueous buffer, kinetic from dmso stock, Solubility in medium, Lab 2, assay medium, Lab 2): 5 µg/mL; solubility ([1]; assay medium, aqueous buffer, kinetic from dmso stock, Solubility in medium, Lab 3, assay medium, Lab 3): 15 µg/mL; solubility ([1]; assay medium, aqueous buffer, kinetic from dmso stock, Solubility in medium, Lab 4, assay medium, Lab 4): 5 µg/mL"
[N-]=[N+]=[N-].[Na+] [Sodium azide],15000 µg/mL,15000 µg/mL,15000 µg/mL,15000 µg/mL,15 µg/mL,15 µg/mL,15 µg/mL,5 µg/mL,–,–,–,–,–,–,–,–,"Agonist classification per run, Lab 1 ([2]; Lab 1, 3 runs): N N N; Agonist classification per run, Lab 2 ([2]; Lab 2, 3 runs): N N N; Agonist classification per run, Lab 3 ([2]; Lab 3, 3 runs): N N N; Agonist classification per run, Lab 4 ([2]; Lab 4, 3 runs): N N N; Antagonist classification per run, Lab 1 ([3]; Lab 1, 3 runs): N N N; Antagonist classification per run, Lab 2 ([3]; Lab 2, 3 runs): N N N; Antagonist classification per run, Lab 3 ([3]; Lab 3, 3 runs): N N N; Antagonist classification per run, Lab 4 ([3]; Lab 4, 3 runs): N N N"
C=CC1(C)OC(=O)N(c2cc(Cl)cc(Cl)c2)C1=O (stereo not drawn) [Vinclozolin],–,–,–,–,–,–,–,–,5 µg/mL,15 µg/mL,15 µg/mL,15 µg/mL,> 50000 µg/mL,> 50000 µg/mL,> 50000 µg/mL,> 50000 µg/mL,–
CCCCC(CC)COC(=O)c1ccccc1C(=O)OCC(CC)CCCC (stereo not drawn) [Diethylhexyl phthalate],15000 µg/mL,> 50000 µg/mL,> 50000 µg/mL,> 50000 µg/mL,15 µg/mL,15 µg/mL,> 50 µg/mL,> 50 µg/mL,–,–,–,–,–,–,–,–,–
C[C@]12Cc3c[nH]nc3C[C@@H]1CC[C@@H]1[C@@H]2CC[C@@]2(C)[C@H]1CC[C@]2(C)O [Stanozolol],–,–,–,–,–,–,–,–,5 µg/mL,5 µg/mL,2 µg/mL,5 µg/mL,5000 µg/mL,> 50000 µg/mL,15000 µg/mL,> 50000 µg/mL,–
